Paper PMC11134331, “Cell-active small molecule inhibitors validate the SNM1A DNA repair nuclease as a cancer target” (Chemical Science, 2024)

Columns and labels:
[1] = test system: U2OS (osteosarcoma) cells; assay: clonogenic survival assay, U2OS cells; format: cell-based, human
Procedure: (§1) Clonogenic assays were performed in 10 cm tissue culture dishes (for RPE-1 cells, U2OS cells and derived clones). Cells (1000 per dish) were seeded in complete media (10 mL) and allowed to attach overnight, then treated with cisplatin or cisplatin plus inhibitor for the times stated. Following treatments, cells were allowed to grow and form colonies for 10 days. Colonies formed were stained with Coomassie R250 (Sigma) and counted on a COLCount Colony Counter (Oxford Optronix). All experiments represent the mean (±SEM) of at least three biological repeats of duplicate dishes/flasks for each treatment.

[2] = test system: γH2AX and EGFP-SNM1A foci in U2OS cells; assay: microscopic analysis of damage-induced subnuclear foci, U2OS cells expressing EGFP-SNM1A; format: cell-based, human
Procedure: To this end, cells stably expressing N-terminally EGFP-tagged SNM1A (EGFP-SNM1A) were treated with 50 μM cisplatin alone, 19 (50 μM), or with a combination of both compounds. It is known that on treatment of cells with DNA crosslinking agents, SNM1A forms subnuclear foci that are associated with ongoing sites of DNA repair.[37] […] As previously established, cisplatin treatment efficiently induces co-localisation of EGFP-SNM1A foci and γH2AX foci within 4 hours following treatment, marking sites of cisplatin damage and its repair (Fig. 6C–E). These largely resolved 24 hours post-treatment, again consistent with previous studies.[16,37] Co-treatment of cells with 19 and cisplatin saw a robust induction of SNM1A foci, consistent with the SNM1A activity being dispensable for its localisation to sites of crosslink repair, and γH2AX foci formation (Fig. 6C–E). […] This clear persistence of repair intermediates and trapping of EGFP-SNM1A at the sites of these repair intermediate implies that 19 engages with SNM1A in a cellular context, delaying the completion of cisplatin crosslink repair, which, in turn, results in the sensitisation of cells to cisplatin.
To assess the number of nuclear foci following cisplatin/inhibitor treatments, cells were plated in glass bottom dishes (as above) and allowed to attach. Following treatment, cells were fixed with 4% (v/v) formaldehyde in PBS, blocked with immunofluoresence (IF) blocking buffer (5% horse serum, 1% saponin in PBS) for 1 h, then incubated with primary antibodies at the desired concentrations in IF blocking buffer (overnight, 4 °C). After washing cells three times with PBS, cells were incubated with secondary antibodies for 2–4 hours in IF blocking buffer, washed a further 3 times with PBS then stained with Hoechst 333 258 (1 μg mL^−1 in PBS) for 30 minutes before a further three washes (all washes and incubations were performed at room temperature, unless otherwise stated).
Confocal images were obtained with a Plan APO 63X 1.40NA oil immersion objective, a pinhole setting of 1 AU, bandpass emission settings of 410–468 nm for Hoechst, 490–544 nm for EGFP, 579–624 nm for RFP or Alexa 568, and 633–695 nm for Alexa 647, a projected pixel dimension of around 110 nm × 110 nm, a pixel dwell time of 1.35 μs, and with a line averaging setting of 2. In order to ensure sufficient cell numbers (N > 300), images were acquired in a tiled 5 × 5 format corresponding to an image area of about 0.65 mm × 0.65 mm. Images were imported into ImageJ and foci were counted using a macro adjusting for staining levels between experiments. Anti-γH2AX antibodies were a mouse monoclonal (Millipore; JBW301).

SNM1B = target: T1, SNM1B (Homo sapiens, UniProt Q9H816); assay: real-time fluorescence-based nuclease assay, SNM1B; format: biochemical
T1 construct: for the MBL and β-CASP domains of SNM1B (aa 1–335) into baculoviral expression vectors pFB-CT10HF-LIC; made in house; host or cells: Sf9 insect cells (baculovirus)
T1 sequence (Q9H816 1-335): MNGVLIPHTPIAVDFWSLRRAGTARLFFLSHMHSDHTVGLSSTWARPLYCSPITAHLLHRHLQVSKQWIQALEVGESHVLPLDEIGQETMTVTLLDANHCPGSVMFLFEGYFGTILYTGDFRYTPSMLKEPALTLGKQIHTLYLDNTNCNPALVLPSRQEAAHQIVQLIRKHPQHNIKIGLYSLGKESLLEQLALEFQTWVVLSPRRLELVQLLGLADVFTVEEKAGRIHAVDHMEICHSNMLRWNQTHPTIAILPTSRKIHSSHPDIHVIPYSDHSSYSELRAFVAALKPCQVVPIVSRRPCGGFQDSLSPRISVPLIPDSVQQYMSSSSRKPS
Procedure: There is structural similarity between SNM1A, SNM1B, and SNM1C and major mechanistic features are likely conserved between the three nucleases. We therefore tested (13) and other hydroxamic acid analogues for inhibition of SNM1B and SNM1C. Due to differences in catalytic turnover between the three enzymes, different concentrations of SNM1B (1 nM) and SNM1C (2.5 nM) were used compared to that for SNM1A (0.5 nM) in the assays. Note that the substrate utilised for the high-throughput fluorescence based and subsequent SNM1A and SNM1B assays differed slightly for SNM1C reflecting its (primarily) endonucleolytic, rather than exonucleolytic, activity (ESI Fig. 9 ^†).
Fluorescence-based nuclease digestion SNM1A–C assays were performed as described.[30,45] […] Fluorescence was measured using a PHERAstar FSX fluorescent plate reader in fluorescent top read mode using excitation at 495 nm, emission at 525 nm, and cutoff at […]. Fluorescence spectra were measured every 140 s, for 35 min, at 37 °C. The fluorescence intensity of each well was plotted against compound concentration and fitted using a log (inhibitor) response curve using GraphPad Prism software (GraphPad Software, Inc., La Jolla, CA, USA).

RPE-1 cells = assay: clonogenic survival assay, RPE-1 cells; format: cell-based, human
Procedure: as §1

For `C[C@H](Nc1nc(NCc2ccco2)nc2ccc(Cl)cc12)C(=O)NO` [compound 19], the “effect on cisplatin cytotoxicity” value ([1]; U2OS wild-type, 50 μM compound 20 hours pre-treatment, 0–15 μM cisplatin) was “potentiation of cisplatin cytotoxicity”, the “cell death as single agent” value ([1]; U2OS, 50 μM compound) was ≤ 10% and the “cytotoxicity as single agent” value ([1]; U2OS, 100 μM compound) was “some cell death”. For the same compound, the “EGFP-SNM1A and γH2AX foci on co-treatment with cisplatin” value ([2]; U2OS EGFP-SNM1A, 50 μM compound + 50 μM cisplatin) was “persisted at 24 hours”, the “induction of EGFP-SNM1A and γH2AX foci by compound alone” value ([2]; U2OS EGFP-SNM1A, 50 μM compound alone) was “did not induce” and the “average number of γH2AX foci at 24 hours” value ([2]; U2OS, cisplatin treated with pretreatment with 50 μM 19) was 81.6 ± 1.7 foci. For the same compound, the “increase of average γH2AX foci number following pretreatment” value ([2]; U2OS, cisplatin treated, 24 hours) was 4 fold, the IC50 (SNM1B) was 2.5 µM and the “effect on cisplatin sensitivity” value (RPE-1 cells; RPE-1, 50 μM compound) was “did not substantially increase”. The “reduction in survival as single agent” value (RPE-1 cells; RPE-1, 50 μM compound) was “negligible reduction in survival” and the “toxicity as single agent” value (RPE-1 cells; RPE-1, 100 μM compound) was “mild toxicity”.
